Experimental data reported in PubChem BioAssay (NCI).
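Test compounds were applied to cells in 96-well plates for 48 hours at 5 doses. Here, GI50 denotes the concentration required for 50% inhibition of growth. TGI is the concentration that stops growth completely.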

Experiments:
Test in all cases: NCI tumour cell line growth inhibition, 48 h
SK-OV-3 ovarian = system: SK-OV-3 ovarian
SK-MEL-2 melanoma = system: SK-MEL-2 melanoma
M14 melanoma = system: M14 melanoma
SF-295 CNS = system: SF-295 CNS
SNB-75 CNS = system: SNB-75 CNS
CCRF-CEM leukemia = system: CCRF-CEM leukemia
SF-539 CNS = system: SF-539 CNS
A498 renal = system: A498 renal
SR leukemia = system: SR leukemia
NCI-H23 lung = system: NCI-H23 lung

SMILES	GI50 (SK-OV-3 ovarian) [µM]	TGI (SK-OV-3 ovarian) [µM]	GI50 (SK-MEL-2 melanoma) [µM]	TGI (SK-MEL-2 melanoma) [µM]	GI50 (M14 melanoma) [µM]	TGI (M14 melanoma) [µM]	GI50 (SF-295 CNS) [µM]	TGI (SF-295 CNS) [µM]	GI50 (SNB-75 CNS) [µM]	TGI (SNB-75 CNS) [µM]	GI50 (CCRF-CEM leukemia) [µM]	TGI (CCRF-CEM leukemia) [µM]	GI50 (SF-539 CNS) [µM]	TGI (SF-539 CNS) [µM]	GI50 (A498 renal) [µM]	TGI (A498 renal) [µM]	GI50 (SR leukemia) [µM]	TGI (SR leukemia) [µM]	GI50 (NCI-H23 lung) [µM]	TGI (NCI-H23 lung) [µM]
C1CCC([PH+](C2CCCCC2)C2CCCCC2[PH+](C2CCCCC2)C2CCCCC2)CC1.[Au].[CH-]1CCCCC1C1CCCC[N-]1 (stereo not given)	0.275	1.14	0.351	1.52	0.425	2.27	0.256	0.901	0.194	0.833	0.426	> 100	0.337	1.28	0.122	0.581	0.392	> 100		
Cc1cc2c(C)c3cc(C)c(N)cc3nc2cc1N	0.963	8.39	1.3	3.85	1.83	6.69	0.909	4.87	1.14	4.94	0.93	10.6	0.455	3.48	0.363	2.01	0.507	4.2	0.852	4.28
O/N=C1\CCc2cc(-c3nc(C4CCNCC4)[nH]c3-c3ccncc3)ccc21	> 25	> 25	16	> 25	7.57	> 25	> 25	> 25	> 15.8	> 25	> 25	> 25	> 25	> 25	> 25	> 25	> 25	> 25	> 25	> 25
CCOC(=O)Cc1c(Cc2[nH]c(C(=O)OCc3ccccc3)c(CC(=O)OCC)c2CC(=O)OCC)[nH]c(C(=O)OCc2ccccc2)c1CC(=O)OCC		> 100				> 100		> 100		> 100		> 100		> 100		> 100		> 100		
Cc1c(NC(=O)C(=O)N=NC(=O)c2ccncc2)c(O)c2ccccc2c1O		> 88.9		11		22.7		23.3		36.2		> 87		33.3		43.5		> 36.4		23.5
O=C(Nc1n[nH]c2nc(-c3ccco3)c(Br)cc12)C1CC1	15.9	> 25	> 25	> 25	> 25	> 25	> 25	> 25	> 9.08	> 25	> 21.7	> 25	> 25	> 25	> 12.5	> 25	> 25	> 25	> 25	> 25
Cc1ccc(S(=O)(=O)N/N=C/C(Br)=C(/Br)C(=O)O)cc1		34.8		35.1		18.2		36.3		41		9.67		14.5		32.3		1.7		15.2
CC(Cl)(/C=C/Cl)C(Cl)/C=C/C(Cl)(CCl)CBr (stereo not given)		30.9		19.8		7.89		20.2		14.5		11.3				18.4		2.07		7.16
